According to patent US20210330611A1, “THERAPY FOR NEUROLOGICAL DISEASES/DISORDERS” (priority 2020, published 2021):
Structures can show the parent of a compound that is named as a salt.

How the values were obtained:
[1] = system: fibrin-induced microglia activation; assay: Image-based assay of fibrin-induced microglia activation (HTS and dose response); type: cell-based, rat; settings: primary microglia HTS, fibrin stimulation, activation = cell size >800 μm2; for inhibition at 10 µM: Rattus norvegicus, Microglia, read-out: Fibrin % inhibition
[2] = system: LPS-induced microglia activation; assay: Image-based assay of LPS-induced microglia activation (HTS and dose response); type: cell-based, rat; settings: primary microglia HTS, LPS stimulation, activation = cell size >800 μm2; for inhibition at 10 µM: Rattus norvegicus, Microglia, 48 h, read-out: LPS % inhibition
[3] = system: fibrin- and LPS-induced microglia activation; assay: cells; type: cell-based, rat; settings: quadrant by fibrin and LPS inhibition in HTS of 1907 compounds
primary rat microglia [4] = assay: Cell toxicity (dead cells, size <150 μm2) in LPS assay; settings: primary microglia HTS, LPS stimulation, toxicity = cell size <150 μm2
primary rat microglia [5] = assay: Cell toxicity (dead cells, size <150 μm2) in coated fibrin (cFib) assay; settings: primary microglia HTS, fibrin stimulation, toxicity = cell size <150 μm2;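 further: share of dead cells sized under 150 µm2 at 10 µM in fibrin-stimulated microglia HTS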

| SMILES | inhibition at 10 µM [1] [%] | inhibition at 10 µM [2] [%] | Quadrant (FIG. 5b) [3] | LPS % cell toxicity (primary rat microglia [4]) [%] | Fibrin % cell toxicity (primary rat microglia [5]) [%] | Fibrin % inhibition [1] [%] | LPS % inhibition [2] [%] |
| --- | --- | --- | --- | --- | --- | --- | --- |
| CC1=C(/C=C/C(C)=C/C=C/C(C)=C/C(=O)Nc2ccc(O)cc2)C(C)(C)CCC1 [Fenretinide] | -42 | 35 | Q4 | 0 | 0 |  |  |
| O=C1NCC2(CCN(CCc3ccccc3)CC2)O1 [Fenspiride] | -43 | -1 | Q4 | 0 | 1 |  |  |
| O=C(COc1ccc(Cl)cc1)N1CCN(Cc2ccc3c(c2)OCO3)CC1 [Fipexide Hydrochloride] | -15 | 11 | Q4 | 0 | 0 |  |  |
| N#Cc1nn(-c2c(Cl)cc(C(F)(F)F)cc2Cl)c(N)c1[S+]([O-])C(F)(F)F (centres unmarked) [Fipronil] | -5 | 12 | Q4 | 0 | 1 |  |  |
| CC1(C)OC(=O)C(OCC2CC2)=C1c1ccc(S(C)(=O)=O)cc1 [Firocoxib] | -10 | 11 | Q4 | 1 | 1 |  |  |
| O=C(NCC1CCCCN1)c1cc(OCC(F)(F)F)ccc1OCC(F)(F)F (centres unmarked) [Flecainide] | -35 | 5 | Q4 | 0 | 0 |  |  |
| CS(=O)(=O)c1ccc([C@@H](O)[C@@H](CF)NC(=O)C(Cl)Cl)cc1 [Florfenicol] | -12 | 16 | Q4 | 1 | 1 |  |  |
| Nc1nc(=O)[nH]cc1F [Flucytosine, 5-fluorocytosine] |  |  | Q4 | 1 | 1 | 13 | 17 |
| Nc1nc(F)nc2c1ncn2[C@@H]1O[C@H](COP(=O)(O)O)[C@@H](O)[C@@H]1O [Fludarabine Phosphate] | 1 | 11 | Q4 | 0 | 1 |  |  |
| O=C(O)c1ccccc1Nc1cccc(C(F)(F)F)c1 [Flufenamic Acid] | -20 | -1 | Q4 | 0 | 0 |  |  |
| CC1CCc2cc(F)cc3c(=O)c(C(=O)O)cn1c23 (centres unmarked) [Flumequine] | -1 | 16 | Q4 | 1 | 0 |  |  |
| Cc1c(Nc2ncccc2C(=O)O)cccc1C(F)(F)F [Flunixin Meglumine] | -6 | 8 | Q4 | 0 | 1 |  |  |
| O=C1OC2(c3ccc(O)cc3Oc3cc(O)ccc32)c2ccccc21 [Fluorescein] | -3 | 4 | Q4 | 0 | 0 |  |  |
